Molecules are shown by their SMILES. Structures can show the parent of a compound that is named as a salt.

Among the data in US20240368118A1, “CEREBLON BINDING COMPOUNDS, COMPOSITIONS THEREOF, AND METHODS OF TREATMENT THEREWITH” (CELGENE CORPORATION, priority 2021, published 2024) are DC50 and Ymin values, retold here.

The target of the test is T1, AR (Homo sapiens, UniProt P10275).
T1 construct: endogenous in cells; host or cells: VCaP cells
T1 sequence (P10275 1-920): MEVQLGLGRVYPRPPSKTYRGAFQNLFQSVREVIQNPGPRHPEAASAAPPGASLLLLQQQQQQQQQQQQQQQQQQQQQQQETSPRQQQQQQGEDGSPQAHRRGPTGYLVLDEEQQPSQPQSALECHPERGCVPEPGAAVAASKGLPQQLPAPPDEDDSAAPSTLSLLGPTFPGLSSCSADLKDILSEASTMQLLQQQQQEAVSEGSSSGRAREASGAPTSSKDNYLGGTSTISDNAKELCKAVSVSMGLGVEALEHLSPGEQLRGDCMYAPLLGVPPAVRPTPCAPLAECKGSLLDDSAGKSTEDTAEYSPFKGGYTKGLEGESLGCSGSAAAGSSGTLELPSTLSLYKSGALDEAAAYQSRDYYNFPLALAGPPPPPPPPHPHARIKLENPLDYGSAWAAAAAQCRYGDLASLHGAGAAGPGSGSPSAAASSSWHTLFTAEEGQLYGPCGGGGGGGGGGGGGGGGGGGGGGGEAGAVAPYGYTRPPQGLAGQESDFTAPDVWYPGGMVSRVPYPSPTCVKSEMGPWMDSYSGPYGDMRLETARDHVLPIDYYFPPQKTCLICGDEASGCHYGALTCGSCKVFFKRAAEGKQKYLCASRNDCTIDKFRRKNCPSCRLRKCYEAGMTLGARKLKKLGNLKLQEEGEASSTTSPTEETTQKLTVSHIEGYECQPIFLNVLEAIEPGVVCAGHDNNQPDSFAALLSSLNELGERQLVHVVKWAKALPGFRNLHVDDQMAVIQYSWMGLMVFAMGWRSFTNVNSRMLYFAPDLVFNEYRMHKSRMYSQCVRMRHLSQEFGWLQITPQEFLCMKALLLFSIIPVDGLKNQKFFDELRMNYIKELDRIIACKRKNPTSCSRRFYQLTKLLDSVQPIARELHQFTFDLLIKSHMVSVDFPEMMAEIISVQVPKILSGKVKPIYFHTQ
Description: VCAP AR Degradation Assay. The test is classed as cell-based. The settings on record: VCaP cells, 24 h; for DC50: AR ELISA, concentration when AR level = 50% of DMSO control; for Ymin: lowest AR level normalized to DMSO control. The gist of the method:
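Total AR in lysates was quantified by sandwich ELISA after 24 h compound exposure of VCaP cells (DMEM, 8% FBS, 37° C). Ten concentrations at 1:3 steps were used, top 5 μM, with 0.1% DMSO as reference.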
(In general: An ELISA detects its analyte on a solid surface through an enzyme-linked reagent.)

Regarding `C[C@@H]1CN(CCO[C@H]2CC[C@H](N3C(=S)N(c4ccc(C#N)c(C(F)(F)F)c4)C(=O)C3(C)C)CC2)C[C@H](C)N1CCC(=O)Nc1ccc(C2CCC(=O)NC2=O)cc1` (stereo partly drawn) [Cmpd 5, 3-((2R,6S)-4-(2-((trans-4-(3-(4-Cyano-3-(trifluoromethyl)phenyl)-5,5-dimethyl-4-oxo-2-thioxoimidazolidin-1-yl)cyclohexyl)oxy)ethyl)-2,6-dimethylpiperazin-1-yl)-N-(4-(2,6-dioxopiperidin-3-yl)phenyl)propanamide], the DC50 lay in the range of 5 to 15 nM. Moreover, the Ymin result (class symbols) is “*** (30%<Y<80%)”.
`C[C@@H]1CN(CCCO[C@H]2CC[C@H](N3C(=S)N(c4ccc(C#N)c(C(F)(F)F)c4)C(=O)C3(C)C)CC2)C[C@H](C)N1CC(=O)Nc1cccc(C2CCC(=O)NC2=O)c1` (stereo partly drawn) [Cmpd 20, 2-((2R,6S)-4-(3-((trans-4-(3-(4-Cyano-3-(trifluoromethyl)phenyl)-5,5-dimethyl-4-oxo-2-thioxoimidazolidin-1-yl)cyclohexyl)oxy)propyl)-2,6-dimethylpiperazin-1-yl)-N-(3-(2,6-dioxopiperidin-3-yl)phenyl)acetamide hydrochloride] returned a DC50 not above 5 nM. The Ymin entry (class symbols) is “** (20%<Y≤30%)”.
The matching figures for `CC[C@]1(c2ccc(NC(=O)CN3[C@H](C)CN(CCO[C@H]4CC[C@H](N5C(=S)N(c6ccc(C#N)c(C(F)(F)F)c6)C(=O)C5(C)C)CC4)C[C@@H]3C)cc2)CCC(=O)NC1=O` [Cmpd 7, 2-((2S,6R)-4-(2-((trans-4-(3-(4-Cyano-3-(trifluoromethyl)phenyl)-5,5-dimethyl-4-oxo-2-thioxoimidazolidin-1-yl)cyclohexyl)oxy)ethyl)-2,6-dimethylpiperazin-1-yl)-N-(4-((R)-3-ethyl-2,6-dioxopiperidin-3-yl)phenyl)acetamide hydrochloride]: 100 to 10000 nM and “*** (30%<Y<80%)”.
Consider `C[C@@H]1C[C@H](CCO[C@H]2CC[C@H](N3C(=S)N(c4cnc(C#N)c(C(F)(F)F)c4)C(=O)C3(C)C)CC2)C[C@H](C)N1CC(=O)Nc1ccc(C2CCC(=O)NC2=O)cc1` (stereo partly drawn) [Cmpd 27, 2-((2R,4r,6S)-4-(2-(((trans)-4-(3-(6-Cyano-5-(trifluoromethyl)pyridin-3-yl)-5,5-dimethyl-4-oxo-2-thioxoimidazolidin-1-yl)cyclohexyl)oxy)ethyl)-2,6-dimethylpiperidin-1-yl)-N-(4-(2,6-dioxopiperidin-3-yl)phenyl)acetamide], for which the 50% degradation concentration (DC50) was not above 5 nM. Besides, the Ymin (given as numbers) was 11 % of DMSO control.
The matching figures for `C[C@@H]1CN(CCCC[C@H]2CC[C@H](N3C(=S)N(c4ccc(C#N)c(C(F)(F)F)c4)C(=O)C3(C)C)CC2)C[C@H](C)N1CC(=O)Nc1ccc(N2CCC(=O)NC2=O)cc1` [Cmpd 26, 2-((2R,6S)-4-(4-((trans)-4-(3-(4-Cyano-3-(trifluoromethyl)phenyl)-5,5-dimethyl-4-oxo-2-thioxoimidazolidin-1-yl)cyclohexyl)butyl)-2,6-dimethylpiperazin-1-yl)-N-(4-(2,4-dioxotetrahydropyrimidin-1(2H)-yl)phenyl)acetamide]: 5 to 15 nM and 25 % of DMSO control.
For `CC1(C)C(=O)N(c2cnc(C#N)c(C(F)(F)F)c2)C(=S)N1[C@H]1CC[C@H](OCCC2CCN(CC(=O)Nc3ccc(C4CCC(=O)NC4=O)cc3)CC2(F)F)CC1` (stereo partly drawn) [Cmpd 44, 2-(4-(2-(((trans)-4-(3-(6-Cyano-5-(trifluoromethyl)pyridin-3-yl)-5,5-dimethyl-4-oxo-2-thioxoimidazolidin-1-yl)cyclohexyl)oxy)ethyl)-3,3-difluoropiperidin-1-yl)-N-(4-(2,6-dioxopiperidin-3-yl)phenyl)acetamide] the same measures were not above 5 nM and 12 % of DMSO control.
For `C[C@@H]1CN(CCCO[C@H]2CC[C@H](N3C(=S)N(c4ccc(C#N)c(C(F)(F)F)c4)C(=O)C3(C)C)CC2)C[C@H](C)N1CC(=O)Nc1cccc(N2CCC(=O)NC2=O)c1` [Cmpd 19, 2-((2R,6S)-4-(3-((trans-4-(3-(4-Cyano-3-(trifluoromethyl)phenyl)-5,5-dimethyl-4-oxo-2-thioxoimidazolidin-1-yl)cyclohexyl)oxy)propyl)-2,6-dimethylpiperazin-1-yl)-N-(3-(2,4-dioxotetrahydropyrimidin-1(2H)-yl)phenyl)acetamide hydrochloride], the DC50 is not above 5 nM. Moreover, the Ymin entry (class symbols) was “** (20%<Y≤30%)”.
`C[C@@H]1C[C@H](OCCO[C@H]2CC[C@H](N3C(=S)N(c4cnc(C#N)c(C(F)(F)F)c4)C(=O)C3(C)C)CC2)C[C@H](C)N1CC(=O)Nc1ccc(C2CCC(=O)NC2=O)cc1` (stereo partly drawn) [Cmpd 41, 2-((2R,4r,6S)-4-(2-(((trans)-4-(3-(6-Cyano-5-(trifluoromethyl)pyridin-3-yl)-5,5-dimethyl-4-oxo-2-thioxoimidazolidin-1-yl)cyclohexyl)oxy)ethoxy)-2,6-dimethylpiperidin-1-yl)-N-(4-(2,6-dioxopiperidin-3-yl)phenyl)acetamide]: the half-maximal degradation concentration (DC50) was not above 5 nM. Further, the Ymin (given as numbers) is 17 % of DMSO control.
With `CC1(C)C(=O)N(c2cnc(C#N)c(C(F)(F)F)c2)C(=S)N1[C@H]1CC[C@H](OCCCN2CCN(CC(=O)Nc3cccc(C4CCC(=O)NC4=O)c3)[C@@H](C(F)(F)F)C2)CC1` (stereo partly drawn) [Cmpd 32, 2-((R)-4-(3-(((trans)-4-(3-(6-Cyano-5-(trifluoromethyl)pyridin-3-yl)-5,5-dimethyl-4-oxo-2-thioxoimidazolidin-1-yl)cyclohexyl)oxy)propyl)-2-(trifluoromethyl)piperazin-1-yl)-N-(3-(2,6-dioxopiperidin-3-yl)phenyl)acetamide], the 50% degradation concentration (DC50) is not above 5 nM. For the same compound, the Ymin (given as numbers) is 20 % of DMSO control.
For `C[C@@H]1C[C@H](OCC[C@H]2CC[C@H](N3C(=S)N(c4cnc(C#N)c(C(F)(F)F)c4)C(=O)C3(C)C)CC2)C[C@H](C)N1CC(=O)Nc1ccc(C2CCC(=O)NC2=O)cc1` (stereo partly drawn) [Cmpd 39, 2-((2R,4r,6S)-4-(2-((trans)-4-(3-(6-Cyano-5-(trifluoromethyl)pyridin-3-yl)-5,5-dimethyl-4-oxo-2-thioxoimidazolidin-1-yl)cyclohexyl)ethoxy)-2,6-dimethylpiperidin-1-yl)-N-(4-(2,6-dioxopiperidin-3-yl)phenyl)acetamide] the same measures were not above 5 nM and 14 % of DMSO control.
`CC1(C)C(=O)N(c2cnc(C#N)c(C(F)(F)F)c2)C(=S)N1[C@H]1CC[C@H](OCCCN2CCN(CC(=O)Nc3ccc(C4CCC(=O)NC4=O)cc3)[C@@H](C(F)(F)F)C2)CC1` (stereo partly drawn) [Cmpd 34, 2-((R)-4-(3-(((trans)-4-(3-(6-Cyano-5-(trifluoromethyl)pyridin-3-yl)-5,5-dimethyl-4-oxo-2-thioxoimidazolidin-1-yl)cyclohexyl)oxy)propyl)-2-(trifluoromethyl)piperazin-1-yl)-N-(4-(2,6-dioxopiperidin-3-yl)phenyl)acetamide] returned a DC50 not above 5 nM. Besides, under “given as numbers”, the Ymin is reported as 12 % of DMSO control.
As for `C[C@@H]1CN(CCC[C@H]2CC[C@H](N3C(=S)N(c4cnc(C#N)c(C(F)(F)F)c4)C(=O)C3(C)C)CC2)C[C@H](C)N1CC(=O)Nc1ccc(C2CCC(=O)NC2=O)cc1` (stereo partly drawn) [Cmpd 15, 2-((2R,6S)-4-(3-(trans-4-(3-(6-Cyano-5-(trifluoromethyl)pyridin-3-yl)-5,5-dimethyl-4-oxo-2-thioxoimidazolidin-1-yl)cyclohexyl)propyl)-2,6-dimethylpiperazin-1-yl)-N-(4-(2,6-dioxopiperidin-3-yl)phenyl)acetamide hydrochloride], the DC50 is not above 5 nM. In addition, the Ymin result (class symbols) was “** (20%<Y≤30%)”.

For orientation: DC50 means the midpoint of the concentration-degradation curve.
